# Results published in article doi:10.1101/2024.08.19.608619, “Discovery of potent SARS-CoV-2 nsp3 macrodomain inhibitors uncovers lack of translation to cellular antiviral response” (bioRxiv, 2024).
# Read-outs that look alike come from different tables or passages of the source.
# What was measured:
# [1] = tested on: Ca2+ channel (L, dihydropyridine site); assay: In vitro CEREP profiling, Ca2+ channel (L, dihydropyridine site) (antagonist radioligand); type: binding; conditions: test compound concentration 10 uM
# Excerpt: (§1) Supplement media-1.zip/Safety_Panel_Profile.csv, table | column: perc_inhibition
# Lck kinase (h) = biological target: T1, Lck kinase (h) (Homo sapiens, UniProt P06239); assay: In vitro CEREP profiling, Lck kinase (h); type: biochemical; conditions: test compound concentration 10 uM, Enzyme and Cell-based assays
# T1 construct: purchased Eurofins Cerep (SafetyScreen44), recognised from the panel format
# Excerpt: as §1
# Na+ channel (site 2) = assay: In vitro CEREP profiling, Na+ channel (site 2) (antagonist radioligand); type: binding; conditions: test compound concentration 10 uM
# Excerpt: as §1
# PDE3A (h) = biological target: T2, PDE3A (h) (Homo sapiens, UniProt Q14432); assay: In vitro CEREP profiling, PDE3A (h); type: biochemical; conditions: test compound concentration 10 uM, Enzyme and Cell-based assays
# T2 construct: purchased Eurofins Cerep (SafetyScreen44), recognised from the panel format
# Excerpt: as §1
# NaV1.5 = NaV1.5 (Homo sapiens, UniProt Q14524); assay: In vitro NaV1.5 cardiotoxicity; conditions: top test concentration 30 uM
# Excerpt: Supplement media-1.zip/Cardiotoxicity.csv, table | column: ic50_rest_state; ic50_use_dep_block; perc_inhibition_rest_state; perc_inhibition_use_dep_block
# D2S (h) = biological target: T3, D2S (h) (Homo sapiens, UniProt P14416); assay: In vitro CEREP profiling, D2S (h) (agonist radioligand); type: binding; conditions: test compound 10 uM
# T3 construct: purchased Eurofins Cerep (SafetyScreen44), recognised from the panel format
# Excerpt: as §1
# H2 (h) = biological target: T4, H2 (h) (Homo sapiens, UniProt P25021); assay: In vitro CEREP profiling, H2 (h) (antagonist radioligand); type: binding; conditions: test compound concentration 10 uM
# T4 construct: purchased Eurofins Cerep (SafetyScreen44), recognised from the panel format
# Excerpt: as §1
# alpha1A (h) = biological target: T5, alpha1A (h) (Homo sapiens, UniProt P35348); assay: In vitro CEREP profiling, alpha1A (h) (antagonist radioligand); type: binding; conditions: test compound 10 uM
# T5 construct: purchased Eurofins Cerep (SafetyScreen44), recognised from the panel format
# T5 sequence (P35348 1-466): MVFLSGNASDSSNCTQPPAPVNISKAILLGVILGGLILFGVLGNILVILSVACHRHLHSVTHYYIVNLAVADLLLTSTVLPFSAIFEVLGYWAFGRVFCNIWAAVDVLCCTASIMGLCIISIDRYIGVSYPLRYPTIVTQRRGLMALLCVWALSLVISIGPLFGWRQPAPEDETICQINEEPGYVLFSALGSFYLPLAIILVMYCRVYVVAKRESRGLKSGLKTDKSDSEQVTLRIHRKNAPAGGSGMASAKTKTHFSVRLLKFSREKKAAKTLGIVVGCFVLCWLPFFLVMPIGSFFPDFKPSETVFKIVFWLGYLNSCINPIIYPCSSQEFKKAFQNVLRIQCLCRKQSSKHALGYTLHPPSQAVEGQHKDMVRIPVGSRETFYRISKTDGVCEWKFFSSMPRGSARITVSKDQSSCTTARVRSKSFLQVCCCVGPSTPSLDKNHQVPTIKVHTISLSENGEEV
# Excerpt: as §1
# COX2(h) = biological target: T6, COX2(h) (Homo sapiens, UniProt P35354); assay: In vitro CEREP profiling, COX2(h); type: biochemical; conditions: test compound concentration 10 uM, Enzyme and Cell-based assays
# T6 construct: purchased Eurofins Cerep (SafetyScreen44), recognised from the panel format
# T6 sequence (P35354 18-604): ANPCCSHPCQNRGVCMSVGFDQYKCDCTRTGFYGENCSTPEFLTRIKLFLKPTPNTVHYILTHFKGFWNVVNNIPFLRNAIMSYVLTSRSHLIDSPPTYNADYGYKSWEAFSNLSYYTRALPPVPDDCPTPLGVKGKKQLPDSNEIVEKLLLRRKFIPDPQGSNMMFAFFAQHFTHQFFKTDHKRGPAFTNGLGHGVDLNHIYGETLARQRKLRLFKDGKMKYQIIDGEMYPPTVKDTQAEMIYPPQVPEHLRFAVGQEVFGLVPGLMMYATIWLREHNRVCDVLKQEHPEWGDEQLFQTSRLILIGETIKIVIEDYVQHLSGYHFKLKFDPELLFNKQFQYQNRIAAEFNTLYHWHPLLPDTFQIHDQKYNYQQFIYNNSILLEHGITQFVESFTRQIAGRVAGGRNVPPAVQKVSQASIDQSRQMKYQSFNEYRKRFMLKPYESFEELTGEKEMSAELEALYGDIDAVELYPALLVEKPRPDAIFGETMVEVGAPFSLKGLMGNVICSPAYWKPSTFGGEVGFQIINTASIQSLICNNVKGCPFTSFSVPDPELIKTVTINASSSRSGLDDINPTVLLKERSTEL
# Excerpt: as §1
# [2] = In vitro dog hepatocyte stability; type: in vitro ADME
# Excerpt: Supplement media-1.zip/Hepatocyte_Stability.csv, table | column: clint; t_half
# Protein binding = type: in vitro ADME
# Excerpt: Supplement media-1.zip/Protein_Binding.csv, table | column: fu; perc_bound; perc_free; perc_recovered
# A2A (h) = biological target: T7, A2A (h) (Homo sapiens, UniProt P29274); assay: In vitro CEREP profiling, A2A (h) (agonist radioligand); type: binding; conditions: test compound 10 uM
# T7 construct: purchased Eurofins Cerep (SafetyScreen44), recognised from the panel format
# Excerpt: as §1
# [3] = NaV1.5, rest state, read-out: ic50_rest_state
# [4] = NaV1.5, use dependent block, read-out: ic50_use_dep_block
# [5] = In vitro dog plasma protein binding
# [6] = In vitro fetal calf serum protein binding
# [7] = In vitro human plasma protein binding
# [8] = In vitro mouse plasma protein binding
# [9] = In vitro rat plasma protein binding
# [10] = read-out: perc_inhibition (% inhibition of the binding of a ligand specific for each target)
# T3 sequence (P14416 1-414 isoform P14416-2): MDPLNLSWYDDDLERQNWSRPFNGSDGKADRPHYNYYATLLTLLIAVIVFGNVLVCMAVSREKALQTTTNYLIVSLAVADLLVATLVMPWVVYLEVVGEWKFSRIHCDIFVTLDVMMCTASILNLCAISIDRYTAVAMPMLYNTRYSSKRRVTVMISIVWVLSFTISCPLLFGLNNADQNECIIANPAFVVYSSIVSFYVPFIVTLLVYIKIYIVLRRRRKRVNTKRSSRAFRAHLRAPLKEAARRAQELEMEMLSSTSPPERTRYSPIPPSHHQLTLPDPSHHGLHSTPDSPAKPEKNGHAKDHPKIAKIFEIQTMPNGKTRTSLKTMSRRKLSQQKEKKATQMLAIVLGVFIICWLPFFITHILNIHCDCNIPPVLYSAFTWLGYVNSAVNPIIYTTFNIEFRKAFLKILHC
# T2 sequence (Q14432 whole entry): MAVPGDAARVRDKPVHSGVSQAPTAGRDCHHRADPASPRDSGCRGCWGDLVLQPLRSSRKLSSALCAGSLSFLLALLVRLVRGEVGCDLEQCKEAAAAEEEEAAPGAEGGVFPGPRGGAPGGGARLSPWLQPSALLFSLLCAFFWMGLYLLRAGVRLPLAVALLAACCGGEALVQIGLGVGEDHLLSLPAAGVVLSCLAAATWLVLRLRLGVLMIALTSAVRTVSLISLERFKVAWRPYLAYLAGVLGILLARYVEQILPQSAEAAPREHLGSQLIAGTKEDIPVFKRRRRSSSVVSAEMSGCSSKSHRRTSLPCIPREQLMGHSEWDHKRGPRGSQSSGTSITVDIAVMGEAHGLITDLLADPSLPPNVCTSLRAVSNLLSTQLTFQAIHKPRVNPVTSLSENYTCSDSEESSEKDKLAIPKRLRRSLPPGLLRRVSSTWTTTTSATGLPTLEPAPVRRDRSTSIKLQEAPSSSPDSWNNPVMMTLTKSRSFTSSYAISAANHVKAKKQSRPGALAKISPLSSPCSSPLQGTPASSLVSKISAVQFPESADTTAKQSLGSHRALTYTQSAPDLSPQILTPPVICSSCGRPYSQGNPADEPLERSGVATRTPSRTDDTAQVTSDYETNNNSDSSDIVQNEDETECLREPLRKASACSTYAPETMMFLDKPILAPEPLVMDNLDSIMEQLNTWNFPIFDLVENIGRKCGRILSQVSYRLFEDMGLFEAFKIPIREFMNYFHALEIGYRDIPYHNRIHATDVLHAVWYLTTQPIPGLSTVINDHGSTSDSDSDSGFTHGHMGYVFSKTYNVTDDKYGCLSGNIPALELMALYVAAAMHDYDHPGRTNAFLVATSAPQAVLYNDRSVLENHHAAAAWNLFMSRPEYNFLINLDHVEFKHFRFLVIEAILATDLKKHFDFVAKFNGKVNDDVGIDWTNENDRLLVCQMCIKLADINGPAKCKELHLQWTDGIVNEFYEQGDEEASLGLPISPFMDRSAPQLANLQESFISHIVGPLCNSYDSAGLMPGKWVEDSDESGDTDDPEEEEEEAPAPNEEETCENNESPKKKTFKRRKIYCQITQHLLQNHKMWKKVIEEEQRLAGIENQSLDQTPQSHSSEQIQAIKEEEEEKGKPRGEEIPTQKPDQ
# T1 sequence (P06239 whole entry): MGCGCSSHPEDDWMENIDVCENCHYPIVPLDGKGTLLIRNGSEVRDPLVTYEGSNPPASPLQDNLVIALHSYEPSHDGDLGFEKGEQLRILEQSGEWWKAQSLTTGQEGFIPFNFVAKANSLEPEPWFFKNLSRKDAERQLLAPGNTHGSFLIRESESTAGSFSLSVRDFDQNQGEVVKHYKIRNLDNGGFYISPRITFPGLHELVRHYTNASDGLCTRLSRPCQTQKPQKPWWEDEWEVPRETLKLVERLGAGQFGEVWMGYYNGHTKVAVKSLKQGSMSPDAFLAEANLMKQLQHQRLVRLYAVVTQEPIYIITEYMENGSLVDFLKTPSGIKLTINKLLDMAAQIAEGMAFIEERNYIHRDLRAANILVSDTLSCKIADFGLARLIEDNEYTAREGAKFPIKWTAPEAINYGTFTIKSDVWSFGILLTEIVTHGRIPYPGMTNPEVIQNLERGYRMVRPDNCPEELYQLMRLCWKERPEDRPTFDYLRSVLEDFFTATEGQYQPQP
# T4 sequence (P25021 whole entry): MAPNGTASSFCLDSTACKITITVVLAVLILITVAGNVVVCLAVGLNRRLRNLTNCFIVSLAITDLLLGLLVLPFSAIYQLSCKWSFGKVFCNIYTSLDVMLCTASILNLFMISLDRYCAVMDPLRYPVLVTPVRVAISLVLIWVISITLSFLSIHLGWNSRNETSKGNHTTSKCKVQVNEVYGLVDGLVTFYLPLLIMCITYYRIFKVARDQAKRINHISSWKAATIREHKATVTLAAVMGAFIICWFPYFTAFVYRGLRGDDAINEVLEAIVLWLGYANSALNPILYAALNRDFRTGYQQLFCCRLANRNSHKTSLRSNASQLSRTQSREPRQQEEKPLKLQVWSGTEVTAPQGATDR
# Sequence of NaV1.5 (Q14524 whole entry): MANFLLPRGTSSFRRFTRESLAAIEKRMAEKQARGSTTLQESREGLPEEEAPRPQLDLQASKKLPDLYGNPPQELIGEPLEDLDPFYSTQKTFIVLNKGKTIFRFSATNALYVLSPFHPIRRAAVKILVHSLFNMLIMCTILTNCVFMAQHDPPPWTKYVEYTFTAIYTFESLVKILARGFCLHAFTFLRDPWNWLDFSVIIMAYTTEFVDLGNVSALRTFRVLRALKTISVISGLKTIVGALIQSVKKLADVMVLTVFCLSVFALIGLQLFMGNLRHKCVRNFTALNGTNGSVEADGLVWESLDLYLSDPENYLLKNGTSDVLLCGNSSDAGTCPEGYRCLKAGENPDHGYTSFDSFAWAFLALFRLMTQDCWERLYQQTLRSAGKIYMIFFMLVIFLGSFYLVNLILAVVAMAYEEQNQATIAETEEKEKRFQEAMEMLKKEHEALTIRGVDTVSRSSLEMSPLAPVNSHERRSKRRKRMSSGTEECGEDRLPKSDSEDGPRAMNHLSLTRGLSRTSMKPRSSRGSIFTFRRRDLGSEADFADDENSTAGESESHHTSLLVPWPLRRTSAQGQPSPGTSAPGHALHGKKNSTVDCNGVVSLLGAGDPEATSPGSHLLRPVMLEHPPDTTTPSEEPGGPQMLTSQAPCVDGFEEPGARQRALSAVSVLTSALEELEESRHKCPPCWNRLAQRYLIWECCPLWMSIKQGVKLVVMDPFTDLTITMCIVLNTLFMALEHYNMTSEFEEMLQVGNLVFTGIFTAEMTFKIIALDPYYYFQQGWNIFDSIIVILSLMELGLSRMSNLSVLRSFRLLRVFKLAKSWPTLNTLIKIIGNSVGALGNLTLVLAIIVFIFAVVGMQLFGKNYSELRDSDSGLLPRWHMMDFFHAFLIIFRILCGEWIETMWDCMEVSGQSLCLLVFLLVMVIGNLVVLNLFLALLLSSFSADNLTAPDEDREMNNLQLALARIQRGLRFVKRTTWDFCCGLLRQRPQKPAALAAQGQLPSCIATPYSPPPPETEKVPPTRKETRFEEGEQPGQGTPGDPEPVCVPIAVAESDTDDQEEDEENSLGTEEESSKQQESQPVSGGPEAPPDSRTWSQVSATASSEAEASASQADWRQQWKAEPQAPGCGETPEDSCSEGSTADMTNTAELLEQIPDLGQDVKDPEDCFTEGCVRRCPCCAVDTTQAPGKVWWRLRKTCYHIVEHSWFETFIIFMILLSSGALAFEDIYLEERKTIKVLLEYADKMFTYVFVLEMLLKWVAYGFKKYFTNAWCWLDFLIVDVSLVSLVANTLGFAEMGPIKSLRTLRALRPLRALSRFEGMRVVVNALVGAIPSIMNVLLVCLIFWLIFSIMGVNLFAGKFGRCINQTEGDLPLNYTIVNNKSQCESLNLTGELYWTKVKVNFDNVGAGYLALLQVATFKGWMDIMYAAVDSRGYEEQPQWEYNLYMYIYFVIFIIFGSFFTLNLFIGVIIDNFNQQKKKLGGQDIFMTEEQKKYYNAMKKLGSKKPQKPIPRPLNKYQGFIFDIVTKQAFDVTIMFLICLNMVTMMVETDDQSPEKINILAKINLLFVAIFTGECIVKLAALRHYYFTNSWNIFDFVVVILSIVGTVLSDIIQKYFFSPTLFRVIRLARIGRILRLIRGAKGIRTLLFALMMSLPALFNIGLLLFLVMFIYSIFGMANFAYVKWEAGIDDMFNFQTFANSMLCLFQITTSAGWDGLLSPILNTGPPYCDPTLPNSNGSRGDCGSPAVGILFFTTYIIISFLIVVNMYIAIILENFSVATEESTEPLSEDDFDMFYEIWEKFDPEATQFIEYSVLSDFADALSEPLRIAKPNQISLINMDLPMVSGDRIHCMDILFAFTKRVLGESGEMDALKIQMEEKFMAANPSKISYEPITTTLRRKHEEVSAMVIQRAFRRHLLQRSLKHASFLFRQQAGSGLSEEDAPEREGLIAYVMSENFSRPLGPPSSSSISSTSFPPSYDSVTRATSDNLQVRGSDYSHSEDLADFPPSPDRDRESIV
# T7 sequence (P29274 whole entry): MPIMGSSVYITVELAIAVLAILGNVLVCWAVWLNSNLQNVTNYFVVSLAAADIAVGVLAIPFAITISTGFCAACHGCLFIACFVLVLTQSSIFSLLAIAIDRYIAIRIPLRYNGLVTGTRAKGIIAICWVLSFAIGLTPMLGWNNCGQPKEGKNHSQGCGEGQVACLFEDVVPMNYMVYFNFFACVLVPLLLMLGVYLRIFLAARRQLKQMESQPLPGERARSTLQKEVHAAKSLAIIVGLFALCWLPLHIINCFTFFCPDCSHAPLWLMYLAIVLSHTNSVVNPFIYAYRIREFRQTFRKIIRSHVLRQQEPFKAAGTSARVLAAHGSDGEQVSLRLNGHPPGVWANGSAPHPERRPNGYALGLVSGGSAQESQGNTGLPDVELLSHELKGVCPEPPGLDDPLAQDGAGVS
SMILES,perc_inhibition (% inhibition of the binding of a ligand specific for each target) [1] [%],"perc_inhibition: % inhibition of control enzyme activity, Lck kinase (h) (Lck kinase (h)) [%]",perc_inhibition (% inhibition of the binding of a ligand specific for each target) (Na+ channel (site 2)) [%],"perc_inhibition: % inhibition of control enzyme activity, PDE3A (h) (PDE3A (h)) [%]","perc_inhibition_rest_state (NaV1.5; NaV1.5, rest state) [%]",IC50 (NaV1.5; [3]) [µM],"perc_inhibition_use_dep_block (NaV1.5; NaV1.5, use dependent block) [%]",IC50 (NaV1.5; [4]) [µM],perc_inhibition (% inhibition of the binding of a ligand specific for each target) (D2S (h)) [%],perc_inhibition (% inhibition of the binding of a ligand specific for each target) (H2 (h)) [%],perc_inhibition (% inhibition of the binding of a ligand specific for each target) (alpha1A (h)) [%],"perc_inhibition: % inhibition of control enzyme activity, COX2(h) (COX2(h)) [%]",clint [2] [uL/min/1E6 cells],t_half [2] [min],fu (Protein binding; [5]),perc_bound (Protein binding; [5]) [%],perc_free (Protein binding; [5]) [%],perc_recovered (Protein binding; [5]) [%],fu (Protein binding; [6]),perc_bound (Protein binding; [6]) [%],further results
CC(C)[C@H](Nc1ncnc2[nH]ccc12)c1ccc2c(c1)S(=O)(=O)CCC2 [ASAP-0008674],12,10,-5,29,19.0,> 30,29.0,> 30,-14,-6,-2,23,< 3.0,> 231.0,0.148,85.2,14.8,97.58,0.095,90.5,perc_free (Protein binding; [6]): 9.5%; perc_recovered (Protein binding; [6]): 94.23%; fu (Protein binding; [7]): 0.144; perc_bound (Protein binding; [7]): 85.6%; perc_free (Protein binding; [7]): 14.4%; perc_recovered (Protein binding; [7]): 95.79%; fu (Protein binding; [8]): 0.124; perc_bound (Protein binding; [8]): 87.6%; perc_free (Protein binding; [8]): 12.4%; perc_recovered (Protein binding; [8]): 89.46%; fu (Protein binding; [9]): 0.189; perc_bound (Protein binding; [9]): 81.1%; perc_free (Protein binding; [9]): 18.9%; perc_recovered (Protein binding; [9]): 91.14%; perc_inhibition (% inhibition of the binding of a ligand specific for each target) (A2A (h)): 11%
CC(C)[C@H](Nc1ncnc2[nH]c(-c3cnn(C)c3C#N)cc12)c1ccc2c(n1)OCCO2 [ASAP-0010715],9,20,10,37,33.0,> 30,35.0,> 30,-7,-16,34,-2,3.01,231.0,0.042,95.8,4.24,87.48,0.072,92.8,perc_free (Protein binding; [6]): 7.24%; perc_recovered (Protein binding; [6]): 89.85%; fu (Protein binding; [7]): 0.005; perc_bound (Protein binding; [7]): 99.5%; perc_free (Protein binding; [7]): 0.541%; perc_recovered (Protein binding; [7]): 113.8%; fu (Protein binding; [8]): 0.026; perc_bound (Protein binding; [8]): 97.4%; perc_free (Protein binding; [8]): 2.56%; perc_recovered (Protein binding; [8]): 93.63%; fu (Protein binding; [9]): 0.02; perc_bound (Protein binding; [9]): 98.0%; perc_free (Protein binding; [9]): 2.04%; perc_recovered (Protein binding; [9]): 97.27%; perc_inhibition (% inhibition of the binding of a ligand specific for each target) (A2A (h)): 84%
CC(C)[C@@H](Nc1ncnc2[nH]c(-c3cnn(C)c3C#N)cc12)c1ccc2c(n1)OCCO2 [ASAP-0010716],10,34,12,37,27.0,> 30,25.0,> 30,3,-11,11,-7,3.91,177.0,0.029,97.1,2.93,91.53,0.038,96.2,perc_free (Protein binding; [6]): 3.84%; perc_recovered (Protein binding; [6]): 96.46%; fu (Protein binding; [7]): 0.005; perc_bound (Protein binding; [7]): 99.5%; perc_free (Protein binding; [7]): 0.507%; perc_recovered (Protein binding; [7]): 111.8%; fu (Protein binding; [8]): 0.027; perc_bound (Protein binding; [8]): 97.3%; perc_free (Protein binding; [8]): 2.67%; perc_recovered (Protein binding; [8]): 94.71%; fu (Protein binding; [9]): 0.022; perc_bound (Protein binding; [9]): 97.8%; perc_free (Protein binding; [9]): 2.16%; perc_recovered (Protein binding; [9]): 100.0%; perc_inhibition (% inhibition of the binding of a ligand specific for each target) (A2A (h)): 69%
CNCc1cc(-c2cc3c(N[C@@H](c4ccc5c(c4)S(=O)(=O)CCC5)C(C)C)ncnc3[nH]2)co1 [ASAP-0011176],-3,68,19,-5,10.0,> 30,16.0,> 30,-9,-3,50,24,7.3,94.9,0.088,91.2,8.77,70.87,0.08,92.0,perc_free (Protein binding; [6]): 8.01%; perc_recovered (Protein binding; [6]): 78.6%; fu (Protein binding; [7]): 0.08; perc_bound (Protein binding; [7]): 92.0%; perc_free (Protein binding; [7]): 8.01%; perc_recovered (Protein binding; [7]): 78.61%; fu (Protein binding; [8]): 0.031; perc_bound (Protein binding; [8]): 96.9%; perc_free (Protein binding; [8]): 3.14%; perc_recovered (Protein binding; [8]): 94.01%; fu (Protein binding; [9]): 0.072; perc_bound (Protein binding; [9]): 92.8%; perc_free (Protein binding; [9]): 7.24%; perc_recovered (Protein binding; [9]): 95.34%; perc_inhibition (% inhibition of the binding of a ligand specific for each target) (A2A (h)): 21%
Cc1nn(C)cc1-c1cc2c(NC(c3ccc4c(c3)S(=O)(=O)CCC4)C(C)C)ncnc2[nH]1 (centres unmarked) [ASAP-0011446],12,,-1,,,,,,,,,,,,,,,,,,"inhibition at 10 µM (Lck kinase (h); read-out: perc_inhibition: % inhibition of control enzyme activity, Lck kinase (h)): 33%; inhibition at 10 µM (PDE3A (h); read-out: perc_inhibition: % inhibition of control enzyme activity, PDE3A (h)): 46%; inhibition at 10 µM (D2S (h); [10]): -16%; inhibition at 10 µM (H2 (h); [10]): -4%; inhibition at 10 µM (alpha1A (h); [10]): 8%; inhibition at 10 µM (COX2(h); read-out: perc_inhibition: % inhibition of control enzyme activity, COX2(h)): 23%; inhibition at 10 µM (A2A (h); [10]): 13%"
